Source: the supplement of paper PMC5579334

How the values were obtained:
HS-Sch-2 [1] = experiment: drug sensitivity score (DSS, CellTiter-Glo viability, 72 h) (DSS (dimensionless)); higher = more sensitive; extreme values may be limits of the assay
Procedure, shortened: (§1)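 Viability was scored by CellTiter-Glo ATP luminescence, scaled from vehicle to positive-control wells, with duplicates averaged where present. The cells, MPNST lines and primary human Schwann cells at 750–1000 per well, sat 72 h at 37 °C, 5% CO2, in 384-well plates preprinted with each compound at five concentrations in 10-fold steps. Four-parameter logistic fits were run on the data. These fits give drug sensitivity score and relative IC50 censored at the top concentration, and percent inhibition is reported at the top concentration.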

HS-PSS [2] = experiment: as above
Procedure, shortened: as §1

YST-1 [3] = experiment: as above
Procedure, shortened: as §1

HS-Sch-2 [4] = experiment: % inhibition of CellTiter-Glo viability at highest tested concentration (72 h), relative to DMSO and benzethonium chloride controls; higher = more inhibition
Procedure, shortened: as §1

HS-PSS [5] = experiment: as above
Procedure, shortened: as §1

YST-1 [6] = experiment: as above
Procedure, shortened: as §1

HS-PSS [7] = experiment: drug sensitivity score (DSS, CellTox-Green cytotoxicity, 72 h) (DSS (dimensionless)); higher = more cytotoxic; extreme values may be limits of the assay
Procedure, shortened: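 MPNST cell lines and primary human Schwann cells were incubated 72 h at 37 °C in 384-well plates holding five 10-fold compound dilutions. CellTox-Green was added before seeding at a final 1:1000 dilution and reported fluorescence from DNA released by disrupted cells. Signals were scaled to vehicle and positive-control wells, and cultures failing plate quality control were dropped. Drug sensitivity score and relative IC50 come from four-parameter logistic fits, with IC50 censored at the top concentration.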

Compound | drug sensitivity score (HS-Sch-2 [1]) | drug sensitivity score (HS-PSS [2]) | drug sensitivity score (YST-1 [3]) | % inhibition (HS-Sch-2 [4]) [%] | % inhibition (HS-PSS [5]) [%] | % inhibition (YST-1 [6]) [%] | drug sensitivity score (HS-PSS [7])
CNc1nc(-c2ccc3c(N)n[nH]c3c2)cc(N2C[C@@H](C(=O)NC3CCCCC3)CC[C@H]2C)n1 (max concentration tested 10000 nM) | 0.1 | 1.2 | 7.15 | 14.3 | 27.7 | 54 | 0
CNC(=O)[C@@H](NC(=O)[C@H](CC(C)C)[C@H](O)C(=O)NO)C(C)(C)C [Marimastat] (max concentration tested 10000 nM) | 0.33 | 0 | 0 | 17.1 | -7.14 | 7.56 | 0
COc1ccc2c(OCc3nnc4ccc(-c5ccccc5)nn34)ccnc2c1 [AMG-208] (max concentration tested 2500 nM) | 0 | 0.98 | 0 | 7.53 | 9.98 | -2.81 | 0
CN(C)C(=O)c1cc2cnc(Nc3ccc(N4CCNCC4)cn3)nc2n1C1CCCC1 [Ribociclib] (max concentration tested 10000 nM) | 1.85 | 1.83 | 6.07 | 25.4 | 28.2 | 67 | 0
NC(=O)c1cccc(-c2cccc(OC(=O)NC3CCCCC3)c2)c1 [URB597] (max concentration tested 1000 nM) | 0 | 1.09 | 0 | 0.43 | 18.8 | -6.54 | 0
COc1cc2c(Nc3ccc(Cl)c(Cl)c3F)ncnc2cc1OC[C@H]1C[C@@H]2CN(C)C[C@@H]2C1 [XL-647] (max concentration tested 1000 nM) | 1.16 | 0.99 | 1.63 | 31.1 | 30.7 | 26.5 | 0
COc1cc(C(=O)O)ccc1NC(=O)[C@@H]1N[C@@H](CC(C)(C)C)[C@](C#N)(c2ccc(Cl)cc2F)[C@H]1c1cccc(Cl)c1F [Idasanutlin] (max concentration tested 10000 nM) | 0 | 5.43 | 25.1 | -12.1 | 26.1 | 98.6 | 0
Cc1nc(NC(=O)N2CCC[C@H]2C(N)=O)sc1-c1ccnc(C(C)(C)C(F)(F)F)c1 [Alpelisib] (max concentration tested 2500 nM) | 1.18 | 0.35 | 7.32 | 21.2 | 13 | 63.6 | 0
CCCCC/C=C/C=C1/C(=O)C=C[C@@H]1C/C=C\CCCC(=O)O [15D-PGJ2] (max concentration tested 3000 nM) | 0.58 | 0 | 0 | 16.9 | 3.17 | -5.83 | 0
CCCC(CCC)C(=O)O [Valproic acid] (max concentration tested 1000000 nM) | 0 | 0 | 2.34 | 2.29 | 6.13 | 44.2 | 0
Oc1ncc(N(CCCl)CCCl)c(O)n1 [Uramustine] (max concentration tested 10000 nM) | 0 | 0 | 0 | 3 | -0.55 | 1.38 | 0
O=C(c1ccc(/C=C/c2n[nH]c3ccccc23)cc1)N1CCNCC1 [KW-2449] (max concentration tested 2500 nM) | 0 | 0 | 2.08 | 0.48 | 10.1 | 30.9 | 0
COc1ccc(C[C@H](NC(=O)[C@H](C)NC(=O)CN2CCOCC2)C(=O)N[C@@H](Cc2ccccc2)C(=O)[C@@]2(C)CO2)cc1 [ONX-0914] (max concentration tested 10000 nM) | 21.7 | 17.6 | 18.1 | 101 | 100 | 101 | 17.5
O=C(NOC[C@H](O)CO)c1ccc(F)c(F)c1Nc1ccc(I)cc1F (max concentration tested 1000 nM) | 0.69 | 0.01 | 0 | 15 | 12.4 | -8.18 | 0
NCCNc1ccc(NCCN)c2c1C(=O)c1ccncc1C2=O [Pixantrone] (max concentration tested 10000 nM) | 2.43 | 4.51 | 2.81 | 50.7 | 77.4 | 54.6 | 0
Cc1ccc2nc(CN(CCN(Cc3nc4ccc(C)cc4[nH]3)Cc3nc4ccc(C)cc4[nH]3)Cc3nc4ccc(C)cc4[nH]3)[nH]c2c1 (max concentration tested 50000 nM) | 7.29 | 7.02 | 6.33 | 80.3 | 74.3 | 67.5 | 0.03
O=C(O)c1ccc(O)c2ncccc12 [IOX-1] (max concentration tested 100000 nM) | 0.26 | 0 | 2.03 | 18.7 | 1.4 | 46 | 0
Cc1nc(N)sc1-c1ccnc(Nc2ccc(N3CCOCC3)cc2)n1 [CYC-116] (max concentration tested 10000 nM) | 4.97 | 6.5 | 8.36 | 54.2 | 65.9 | 58.8 | 0

Compound | drug sensitivity score (HS-Sch-2 [1]) | drug sensitivity score (HS-PSS [2]) | drug sensitivity score (YST-1 [3]) | % inhibition (HS-Sch-2 [4]) [%] | % inhibition (HS-PSS [5]) [%] | % inhibition (YST-1 [6]) [%] | drug sensitivity score (HS-PSS [7])
Cc1cc(Nc2cc(N3CCN(C)CC3)nc(Sc3ccc(NC(=O)C4CC4)cc3)n2)n[nH]1 [Tozasertib] (max concentration tested 10000 nM) | 8.18 | 4.85 | 12.9 | 61.5 | 31.3 | 45.5 | 0
N[C@@H](Cc1ccc(N(CCCl)CCCl)cc1)C(=O)O [Melphalan] (max concentration tested 12500 nM) | 0 | 0 | 0 | 7.23 | 3.32 | 3.44 | 0
C#Cc1cccc(Nc2ncnc3cc4c(cc23)OCCOCCOCCO4)c1 [Icotinib] (max concentration tested 10000 nM) | 1.37 | 0.72 | 1.96 | 19.6 | 16.4 | 23.8 | 0
CCNC(=O)c1noc(-c2cc(C(C)C)c(O)cc2O)c1-c1ccc(CN2CCOCC2)cc1 [Luminespib] (max concentration tested 1000 nM) | 23.5 | 14 | 19.5 | 98.9 | 82.2 | 79.6 | 3.7
CCn1c(=O)c(-c2ccc(Cl)cc2Cl)cc2cnc(Nc3ccc(N4CCNCC4)c(F)c3)nc21 [FRAX486] (max concentration tested 5000 nM) | 9.15 | 3.36 | 0 | 47.6 | 11.5 | -6.01 | 0
NC(=O)Nc1sc(-c2ccc(F)cc2)cc1C(N)=O [TPCA-1] (max concentration tested 25000 nM) | 1.36 | 3.59 | 3.91 | 17.7 | 41 | 46.1 | 0
CN(c1ncccc1CNc1nc(Nc2ccc3c(c2)CC(=O)N3)ncc1C(F)(F)F)S(C)(=O)=O (max concentration tested 10000 nM) | 5.18 | 3.86 | 7.85 | 99.2 | 73.3 | 98.6 | 0.03
CN1CC[C@@H](NC(=O)Nc2ccc(C#N)cc2)C[C@@H]1c1nc2ccccc2[nH]1 [Glasdegib] (max concentration tested 1000 nM) | 1.4 | 2.26 | 0 | 20.6 | 21.2 | 1.47 | 0
O=C(Nc1ccc(-c2ccnc(Nc3ccc(N4CCOCC4)cc3)n2)cc1)[C@H]1CCCN1 [XL019] (max concentration tested 10000 nM) | 1.09 | 1.67 | 1.13 | 22.7 | 32.7 | 24.9 | 0
O=C(O)C(=O)O.[NH-][C@@H]1CCCC[C@H]1[NH-].[Pt+2] [Oxaliplatin] (max concentration tested 100000 nM) | 11.4 | 8.54 | 19.6 | 100 | 69.2 | 97.7 | 3.02
Nc1cccc2c1CN(C1CCC(=O)NC1=O)C2=O (configuration not stated) [Lenalidomide] (max concentration tested 100000 nM) | 0.18 | 0 | 1.7 | 15.6 | 6.75 | 20.7 | 0
O=C(Nc1ccc(OC(F)(F)F)cc1)c1sccc1NCc1ccnc2ccccc12 [OSI-930] (max concentration tested 2500 nM) | 0.3 | 2.5 | 0 | 17.9 | 23.2 | 1.07 | 0
C[C@@H]1C[C@H]2O[C@@H]2/C=C\C=C\C(=O)Cc2c(Cl)c(O)cc(O)c2C(=O)O1 [Radicicol] (max concentration tested 10000 nM) | 16.3 | 12.9 | 12.1 | 99.8 | 86.2 | 94 | 4.33
COc1cc2nccc(Oc3ccc(NC(=O)NC4CC4)c(Cl)c3)c2cc1C(N)=O [Lenvatinib] (max concentration tested 2500 nM) | 0.06 | 0 | 0.83 | 15 | 5.51 | 18.1 | 0
Cc1c(NC(=O)OC[C@@H]2COCCN2)cn2ncnc(Nc3ccc4c(cnn4Cc4cccc(F)c4)c3)c12 (max concentration tested 10000 nM) | 3.4 | 5.43 | 2.68 | 44.4 | 71.3 | 26.8 | 0.6
CCc1nc(-c2cccc(C)c2)c(-c2ccnc(NC(=O)c3ccccc3)c2)s1 [TAK-715] (max concentration tested 10000 nM) | 2.55 | 0.81 | 2.91 | 27.9 | 19.3 | 24 | 0
CNC(=O)c1ccccc1Nc1cc(Nc2ccc(N3CCOCC3)cc2OC)ncc1C(F)(F)F [VS-4718] (max concentration tested 10000 nM) | 3.18 | 3.23 | 4.99 | 50.4 | 68.6 | 45.2 | 0.03
CCN(CC)CCN(Cc1ccc(-c2ccc(C(F)(F)F)cc2)cc1)C(=O)Cn1c(SCc2ccc(F)cc2)nc(=O)c2c1CCC2 [Darapladib] (max concentration tested 1000 nM) | 2.38 | 3.85 | 1.09 | 33 | 53.3 | 19.5 | 3.71
